Measurements as given in patent US11873295B2, “Allosteric chromenone inhibitors of phosphoinositide 3-kinase (PI3K) for the treatment of disease” (Petra Pharma Corporation, priority 2021, dated 2024).

Legend:
[1] = biological target: T1, human full length PIK3KA Wild-type (p110α/p85α complex) (Homo sapiens, UniProt P42336); test: PI3K-alpha kinase (PIK3CA) biochemical activity, wild-type, ADP-Glo; conditions: PI3K-α (PIK3CA) biochemical, Soy PI lipid substrate
T1 construct: Recombinant, catalytically active human full length PIK3KA Wild-type and H1047R mutant were purchased as 1:1 complex; 6xHis (N); purchased EMD Millipore Sigma 14-602M
Method in brief: (§1)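 Full-length His-p110α/p85α complex, wild-type or H1047R, 1–5 nM, preincubated with compound 1 h at 27 °C in HEPES pH 7.4, 25 mM MgCl2, 0.01% Triton X-100, 1% DMSO. Reaction with 20 μM ATP and 50 μM PIP2diC8 or soy PI at 27 °C to ~10% ATP conversion; ADP-Glo luminescence. IC50 from 10-point four-parameter logistic fit.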

[2] = test system: PI3K-α (PIK3CA) in MDA-MB-453 cells; test: PI3K-alpha kinase (PIK3CA) activity in vitro cell based assay, MDA-MB-453 cells, AlphaLisa SureFire; conditions: 0% FBS, 3 hours treatment, relative IC50
Method in brief: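 MDA-MB-453 cells in serum-free MEM with 1 μg/mL insulin treated 3 h with 10-point 1:3 compound dilutions, 0.3% DMSO. Lysates read by AlphaLisa SureFire; percent inhibition relative to DMSO (max) and 1 μM GDC-0032 (min), duplicate means fitted to 4-parameter logistic for relative IC50.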

[3] = biological target: T2, human full length PIK3KA H1047R mutant (p110α/p85α complex) (Homo sapiens, UniProt P42336, H1047R); test: PI3K-alpha kinase (PIK3CA) biochemical activity, H1047R mutant, ADP-Glo; conditions: PI3K-α (PIK3CA) biochemical, H1047R mutant, Soy PI lipid substrate
T2 construct: Recombinant, catalytically active human full length PIK3KA Wild-type and H1047R mutant were purchased as 1:1 complex; 6xHis (N); purchased EMD Millipore Sigma 14-792M
Method in brief: as §1

T2 sequence (P42336 whole entry H1047R): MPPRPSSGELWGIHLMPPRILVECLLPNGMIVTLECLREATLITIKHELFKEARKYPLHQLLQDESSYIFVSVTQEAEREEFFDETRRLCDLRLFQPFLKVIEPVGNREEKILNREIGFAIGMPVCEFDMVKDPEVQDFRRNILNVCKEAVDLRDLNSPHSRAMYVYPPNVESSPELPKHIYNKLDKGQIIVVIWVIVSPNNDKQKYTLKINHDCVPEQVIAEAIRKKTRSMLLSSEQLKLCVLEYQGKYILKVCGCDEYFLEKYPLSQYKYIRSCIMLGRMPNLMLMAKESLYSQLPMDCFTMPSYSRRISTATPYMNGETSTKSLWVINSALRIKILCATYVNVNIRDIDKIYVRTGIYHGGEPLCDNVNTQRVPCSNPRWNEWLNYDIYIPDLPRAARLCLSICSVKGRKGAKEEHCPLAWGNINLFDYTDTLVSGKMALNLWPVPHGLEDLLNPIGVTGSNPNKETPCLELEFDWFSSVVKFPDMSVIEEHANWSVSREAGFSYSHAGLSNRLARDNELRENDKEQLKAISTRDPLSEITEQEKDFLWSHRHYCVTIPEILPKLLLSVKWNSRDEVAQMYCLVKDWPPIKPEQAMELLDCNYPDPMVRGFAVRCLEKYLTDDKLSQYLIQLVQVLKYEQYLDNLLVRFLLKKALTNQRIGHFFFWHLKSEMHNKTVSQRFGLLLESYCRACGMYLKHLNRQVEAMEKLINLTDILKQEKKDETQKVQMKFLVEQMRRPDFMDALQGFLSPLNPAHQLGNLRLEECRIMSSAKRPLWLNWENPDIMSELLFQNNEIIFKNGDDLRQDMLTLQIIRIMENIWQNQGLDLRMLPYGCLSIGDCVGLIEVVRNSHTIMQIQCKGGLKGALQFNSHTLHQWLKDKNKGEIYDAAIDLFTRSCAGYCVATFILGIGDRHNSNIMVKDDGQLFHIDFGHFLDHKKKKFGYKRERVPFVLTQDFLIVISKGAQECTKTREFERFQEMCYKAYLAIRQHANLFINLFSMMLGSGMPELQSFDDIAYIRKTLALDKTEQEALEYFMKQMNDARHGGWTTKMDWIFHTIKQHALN
T2 sequence (P27986 whole entry partner): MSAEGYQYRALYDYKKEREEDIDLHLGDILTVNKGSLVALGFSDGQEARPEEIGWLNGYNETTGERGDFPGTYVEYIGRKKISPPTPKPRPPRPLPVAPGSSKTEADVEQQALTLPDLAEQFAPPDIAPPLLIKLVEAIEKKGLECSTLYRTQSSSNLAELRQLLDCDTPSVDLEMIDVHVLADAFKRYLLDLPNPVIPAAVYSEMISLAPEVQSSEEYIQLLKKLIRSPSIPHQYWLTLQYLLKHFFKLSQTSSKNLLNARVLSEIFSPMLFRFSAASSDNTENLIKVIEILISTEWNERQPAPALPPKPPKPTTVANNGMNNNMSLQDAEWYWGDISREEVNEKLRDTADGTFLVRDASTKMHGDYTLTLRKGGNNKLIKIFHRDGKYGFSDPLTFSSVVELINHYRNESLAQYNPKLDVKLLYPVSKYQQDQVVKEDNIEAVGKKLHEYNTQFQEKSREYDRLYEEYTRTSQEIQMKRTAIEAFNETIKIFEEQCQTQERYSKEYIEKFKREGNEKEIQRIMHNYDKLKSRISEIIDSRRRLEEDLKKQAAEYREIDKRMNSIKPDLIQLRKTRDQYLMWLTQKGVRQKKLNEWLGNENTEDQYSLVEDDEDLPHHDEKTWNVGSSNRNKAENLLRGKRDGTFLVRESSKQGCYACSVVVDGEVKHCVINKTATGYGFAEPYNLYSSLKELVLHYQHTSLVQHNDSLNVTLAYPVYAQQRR

IC50 [1]	IC50 ([2]; Homo sapiens, MDA-MB-453, 3 h)	IC50 [3]	IC50 [2]	Compound
> 10000 nM	50 to 100 nM	1000 to 5000 nM	–	Cc1cc([C@@H](C)Nc2cccnc2C(=O)O)c2oc(-c3ccc(F)c(F)c3)c(C)c(=O)c2c1 [Example 120, 3-[[(1R)-1-[2-(3,4-Difluorophenyl)-3,6-dimethyl-4-oxo-chromen-8-yl]ethyl]amino]pyridine-2-carboxylic acid]
500 to 1000 nM	–	< 500 nM	< 50 nM	Cc1cc([C@@H](C)Nc2ccc(Cl)nc2C(=O)O)c2oc(-c3cccc(C#N)c3)c(C)c(=O)c2c1 [Example 121, 6-Chloro-3-[[(1R)-1-[2-(3-cyanophenyl)-3,6-dimethyl-4-oxo-chromen-8-yl]ethyl]amino]pyridine-2-carboxylic acid]
1000 to 5000 nM	< 50 nM	< 500 nM	–	Cc1cc([C@@H](C)Nc2ccc(C(F)(F)F)nc2C(=O)O)c2oc(-c3ccc(F)c(F)c3)c(C)c(=O)c2c1 [Example 123, 3-[[(1R)-1-[2-(3,4-Difluorophenyl)-3,6-dimethyl-4-oxo-chromen-8-yl]ethyl]amino]-6-(trifluoromethyl)pyridine-2-carboxylic acid]
1000 to 5000 nM	< 50 nM	< 500 nM	–	Cc1cc([C@@H](C)Nc2ccc(C)nc2C(=O)O)c2oc(-c3ccc(F)c(F)c3)c(C)c(=O)c2c1 [Example 124, 3-[[(1R)-1-[2-(3,4-Difluorophenyl)-3,6-dimethyl-4-oxo-chromen-8-yl]ethyl]amino]-6-methyl-pyridine-2-carboxylic acid]
1000 to 5000 nM	< 50 nM	< 500 nM	–	Cc1cc([C@@H](C)Nc2ccc(C(F)(F)F)nc2C(=O)O)c2oc(-c3cccc(C#N)c3)c(C)c(=O)c2c1 [Example 126, 3-[[(1R)-1-[2-(3-Cyanophenyl)-3,6-dimethyl-4-oxo-chromen-8-yl]ethyl]amino]-6-(trifluoromethyl)pyridine-2-carboxylic acid]
1000 to 5000 nM	50 to 100 nM	< 500 nM	–	Cc1cc([C@@H](C)Nc2ccc(C)nc2C(=O)O)c2oc(-c3cccc(C#N)c3)c(C)c(=O)c2c1 [Example 127, 3-[[(1R)-1-[2-(3-Cyanophenyl)-3,6-dimethyl-4-oxo-chromen-8-yl]ethyl]amino]-6-methyl-pyridine-2-carboxylic acid]
1000 to 5000 nM	< 50 nM	< 500 nM	–	Cc1cc([C@@H](C)Nc2ccc(Cl)nc2C(=O)O)c2oc(-c3ccc(F)cc3F)c(C)c(=O)c2c1 [Example 131, 6-Chloro-3-[[(1R)-1-[2-(2,4-difluorophenyl)-3,6-dimethyl-4-oxo-chromen-8-yl]ethyl]amino]pyridine-2-carboxylic acid 2,2,2-trifluoroacetic acid]
5000 to 10000 nM	< 50 nM	< 500 nM	–	Cc1cc([C@@H](C)Nc2ccc(C)nc2C(=O)O)c2oc(-c3cccc(F)c3)c(C)c(=O)c2c1 [Example 134, 3-[[(1R)-1-[2-(3-Fluorophenyl)-3,6-dimethyl-4-oxo-chromen-8-yl]ethyl]amino]-6-methyl-pyridine-2-carboxylic acid]
500 to 1000 nM	< 50 nM	< 500 nM	–	COc1ccc(N[C@H](C)c2cc(C)cc3c(=O)c(C)c(-c4ccccc4)oc23)c(C(=O)O)n1 [Example 135, 6-Methoxy-3-[[(1R)-1-(3,6-dimethyl-4-oxo-2-phenyl-chromen-8-yl)ethyl]amino]pyridine-2-carboxylic acid 2,2,2-trifluoroacetic acid]
5000 to 10000 nM	50 to 100 nM	500 to 1000 nM	–	Cc1cc([C@@H](C)Nc2cccnc2C(=O)O)c2oc(-c3cccc(F)c3)c(C)c(=O)c2c1 [Example 136, 3-[[(1R)-1-[2-(3-Fluorophenyl)-3,6-dimethyl-4-oxo-chromen-8-yl]ethyl]amino]pyridine-2-carboxylic acid]
< 500 nM	< 50 nM	< 500 nM	–	Cc1cc([C@@H](C)Nc2ccc(Br)nc2C(=O)O)c2oc(-c3cccc(C#N)c3)c(C)c(=O)c2c1 [Example 141, 6-Bromo-3-[[(1R)-1-[2-(3-cyanophenyl)-3,6-dimethyl-4-oxo-chromen-8-yl]ethyl]amino]pyridine-2-carboxylic acid]
1000 to 5000 nM	< 50 nM	< 500 nM	–	Cc1cc([C@@H](C)Nc2ccc(Cl)cc2C(=O)O)c2oc(-c3cccc(F)c3)c(C)c(=O)c2c1 [Example 145, 5-Chloro-2-[[(1R)-1-[2-(3-fluorophenyl)-3,6-dimethyl-4-oxo-chromen-8-yl]ethyl]amino]benzoic acid]
1000 to 5000 nM	< 50 nM	1000 to 5000 nM	–	Cc1cc([C@@H](C)Nc2ccc(Cl)cc2C(=O)O)c2oc(-c3ccc(F)c(F)c3)c(C)c(=O)c2c1 [Example 146, 5-Chloro-2-[[(1R)-1-[2-(3,4-difluorophenyl)-3,6-dimethyl-4-oxo-chromen-8-yl]ethyl]amino]benzoic acid]

The next lines start with the compound.

Compound	IC50 [1]	IC50 ([2]; Homo sapiens, MDA-MB-453, 3 h)	IC50 [3]	IC50 [2]
CC(=O)c1c(-c2ccccc2)oc2c([C@@H](C)Nc3ccccc3C(=O)O)cc(C)cc2c1=O [Example 119, 2-[[(1R)-1-(3-Acetyl-6-methyl-4-oxo-2-phenyl-chromen-8-yl)ethyl]amino]benzoic acid 2,2,2-trifluoroacetic acid]	500 to 1000 nM	< 50 nM	< 500 nM	–
Cc1c(-c2ccccc2)oc2c([C@@H](C)Nc3cccnc3C(=O)O)cc(C(F)(F)F)cc2c1=O [Example 122, 3-[[(1R)-1-[3-Methyl-4-oxo-2-phenyl-6-(trifluoromethyl)-chromen-8-yl]ethyl]amino]pyridine-2-carboxylic acid]	> 10000 nM	50 to 100 nM	1000 to 5000 nM	–
Cc1cc([C@@H](C)Nc2cccnc2C(=O)O)c2oc(-c3cccc(C#N)c3)c(C)c(=O)c2c1 [Example 125, 3-[[(1R)-1-[2-(3-Cyanophenyl)-3,6-dimethyl-4-oxo-chromen-8-yl]ethyl]amino]pyridine-2-carboxylic acid]	5000 to 10000 nM	50 to 100 nM	500 to 1000 nM	–
Cc1cc([C@@H](C)Nc2ccc(C(F)(F)F)cc2C(=O)O)c2oc(-c3cccc(C#N)c3)c(C)c(=O)c2c1 [Example 128, 2-[[(1R)-1-[2-(3-Cyanophenyl)-3,6-dimethyl-4-oxo-chromen-8-yl]ethyl]amino]-5-(trifluoromethyl)benzoic acid]	1000 to 5000 nM	50 to 100 nM	< 500 nM	–
Cc1cc([C@@H](C)Nc2ccc(F)cc2C(=O)O)c2oc(-c3cccc(C#N)c3)c(C)c(=O)c2c1 [Example 129, 2-[[(1R)-1-[2-(3-Cyanophenyl)-3,6-dimethyl-4-oxo-chromen-8-yl]ethyl]amino]-5-fluoro-benzoic acid]	< 500 nM	< 50 nM	< 500 nM	–
Cc1cc([C@@H](C)Nc2cccc(F)c2C(=O)O)c2oc(-c3ccc(F)cc3F)c(C)c(=O)c2c1 [Example 130, 2-[[(1R)-1-[2-(2,4-Difluorophenyl)-3,6-dimethyl-4-oxo-chromen-8-yl]ethyl]amino]-6-fluoro-benzoic acid 2,2,2-trifluoroacetic acid]	1000 to 5000 nM	< 50 nM	< 500 nM	–
Cc1cc([C@@H](C)Nc2ncccc2C(=O)O)c2oc(-c3ccccc3)c(C)c(=O)c2c1 [Example 137, 2-[[(1R)-1-(3,6-Dimethyl-4-oxo-2-phenyl-chromen-8-yl)ethyl]amino]pyridine-3-carboxylic acid]	1000 to 5000 nM	< 50 nM	< 500 nM	–
Cc1cc([C@@H](C)Nc2cnccc2C(=O)O)c2oc(-c3ccccc3)c(C)c(=O)c2c1 [Example 138, 3-[[(1R)-1-(3,6-Dimethyl-4-oxo-2-phenyl-chromen-8-yl)ethyl]amino]pyridine-4-carboxylic acid]	> 10000 nM	100 to 500 nM	< 500 nM	–
Cc1cc(C(C)Nc2ccc(Cl)nc2C(=O)O)c2oc(-c3ccccc3)c(I)c(=O)c2c1 (stereo not drawn) [Example 140, 6-Chloro-3-[1-(3-iodo-6-methyl-4-oxo-2-phenyl-chromen-8-yl)ethylamino]pyridine-2-carboxylic acid 2,2,2-trifluoroacetic acid]	1000 to 5000 nM	< 50 nM	< 500 nM	–
Cc1cc([C@@H](C)Nc2cccnc2C(=O)O)c2oc(-c3ccccc3F)c(C)c(=O)c2c1 [Example 142, 3-[[(1R)-1-[2-(2-Fluorophenyl)-3,6-dimethyl-4-oxo-chromen-8-yl]ethyl]amino]pyridine-2-carboxylic acid]	> 10000 nM	50 to 100 nM	1000 to 5000 nM	–
Cc1cc([C@@H](C)Nc2ccc(Cl)cc2C(=O)O)c2oc(-c3cccc(C#N)c3)c(C)c(=O)c2c1 [Example 144, 5-Chloro-2-[[(1R)-1-[2-(3-cyanophenyl)-3,6-dimethyl-4-oxo-chromen-8-yl]ethyl]amino]benzoic acid]	500 to 1000 nM	< 50 nM	< 500 nM	–
Cc1cc([C@@H](C)Nc2ccc(Cl)cc2C(=O)O)c2oc(-c3ccccc3F)c(C)c(=O)c2c1 [Example 147, 5-Chloro-2-[[(1R)-1-[2-(2-fluorophenyl)-3,6-dimethyl-4-oxo-chromen-8-yl]ethyl]amino]benzoic acid]	1000 to 5000 nM	< 50 nM	500 to 1000 nM	–
